Assay: xn = mol fraction of the nth substance listed
Conditions: Liquid, Vibrating tube method

CC(C)(C)Cl [2-chloro-2-methylpropane] + CCCCCCC
mass density [kg/m3]
Conditions | 283.15 K | 293.15 K | 298.15 K
100 kPa, x2 = 0.0554 | 842.44 | 830.68 | 824.75
100 kPa, x2 = 0.1017 | 832.31 | 820.81 | 814.99
100 kPa, x2 = 0.2004 | 811.94 | 800.91 | 795.33
100 kPa, x2 = 0.3016 | 792.65 | 782.03 | 776.67
100 kPa, x2 = 0.4097 | 773.66 | 763.43 | 758.26
100 kPa, x2 = 0.498 | 759.27 | 749.33 | 744.32
100 kPa, x2 = 0.5983 | 744.02 | 734.42 | 729.58
100 kPa, x2 = 0.7017 | 729.43 | 720.16 | 715.49
100 kPa, x2 = 0.7995 | 716.55 | 707.61 | 703.09
100 kPa, x2 = 0.9032 | 703.79 | 695.15 | 690.79
100 kPa, x2 = 0.9482 | 698.49 | 689.98 | 685.68
2000 kPa, x2 = 0.0554 | 844.68 | 833.14 | 827.29
2000 kPa, x2 = 0.1017 | 834.48 | 823.24 | 817.46
2000 kPa, x2 = 0.2004 | 814.1 | 803.29 | 797.78
2000 kPa, x2 = 0.3016 | 794.78 | 784.22 | 778.97
2000 kPa, x2 = 0.4097 | 775.6 | 765.58 | 760.5
2000 kPa, x2 = 0.498 | 761.33 | 751.59 | 746.66
2000 kPa, x2 = 0.5983 | 745.93 | 736.51 | 731.77
2000 kPa, x2 = 0.7017 | 731.35 | 722.23 | 717.66
2000 kPa, x2 = 0.7995 | 718.47 | 709.61 | 705.19
2000 kPa, x2 = 0.9032 | 705.72 | 697.14 | 692.86
2000 kPa, x2 = 0.9482 | 700.41 | 691.94 | 687.76
5000 kPa, x2 = 0.0554 | 848.13 | 836.88 | 831.22
5000 kPa, x2 = 0.1017 | 837.91 | 826.9 | 821.35
5000 kPa, x2 = 0.2004 | 817.4 | 806.74 | 801.38
5000 kPa, x2 = 0.3016 | 797.97 | 787.77 | 782.63
5000 kPa, x2 = 0.4097 | 778.78 | 769.03 | 763.93
5000 kPa, x2 = 0.498 | 764.17 | 754.81 | 749.94
5000 kPa, x2 = 0.5983 | 748.83 | 739.75 | 734.95
5000 kPa, x2 = 0.7017 | 734.11 | 725.28 | 720.69
5000 kPa, x2 = 0.7995 | 721.17 | 712.57 | 708.17
5000 kPa, x2 = 0.9032 | 708.35 | 700.04 | 695.72
5000 kPa, x2 = 0.9482 | 703.02 | 694.81 | 690.58
7000 kPa, x2 = 0.0554 | 850.47 | 839.29 | 833.69
7000 kPa, x2 = 0.1017 | 840.22 | 829.3 | 823.79
7000 kPa, x2 = 0.2004 | 819.61 | 809.03 | 803.89
7000 kPa, x2 = 0.3016 | 800.1 | 789.87 | 784.93
7000 kPa, x2 = 0.4097 | 780.74 | 771.15 | 766.14
7000 kPa, x2 = 0.498 | 766.3 | 756.85 | 752.1
7000 kPa, x2 = 0.5983 | 750.75 | 741.66 | 737.06
7000 kPa, x2 = 0.7017 | 736.02 | 727.16 | 722.75
7000 kPa, x2 = 0.7995 | 722.99 | 714.5 | 710.2
7000 kPa, x2 = 0.9032 | 710.1 | 701.82 | 697.64
7000 kPa, x2 = 0.9482 | 704.76 | 696.6 | 692.49
10000 kPa, x2 = 0.0554 | 853.75 | 842.85 | 837.41
10000 kPa, x2 = 0.1017 | 843.46 | 832.92 | 827.3
10000 kPa, x2 = 0.2004 | 822.51 | 812.44 | 807.34
10000 kPa, x2 = 0.3016 | 803.09 | 793.26 | 788.26
10000 kPa, x2 = 0.4097 | 783.69 | 774.21 | 769.41
10000 kPa, x2 = 0.498 | 769.05 | 759.84 | 755.22
10000 kPa, x2 = 0.5983 | 753.62 | 744.65 | 740.1
10000 kPa, x2 = 0.7017 | 738.75 | 730.1 | 725.72
10000 kPa, x2 = 0.7995 | 725.53 | 717.31 | 712.96
10000 kPa, x2 = 0.9032 | 712.59 | 704.57 | 700.3
10000 kPa, x2 = 0.9482 | 707.21 | 699.31 | 695.09
20000 kPa, x2 = 0.0554 | 864 | 853.69 | 848.71
20000 kPa, x2 = 0.1017 | 853.55 | 843.51 | 838.45
20000 kPa, x2 = 0.2004 | 832.47 | 822.74 | 818.1
20000 kPa, x2 = 0.3016 | 812.54 | 803.2 | 798.58
20000 kPa, x2 = 0.4097 | 792.93 | 783.9 | 779.66
20000 kPa, x2 = 0.498 | 778.04 | 769.27 | 765.11
20000 kPa, x2 = 0.5983 | 762.35 | 753.74 | 749.57
20000 kPa, x2 = 0.7017 | 747.22 | 738.84 | 734.93
20000 kPa, x2 = 0.7995 | 733.81 | 725.88 | 721.79
20000 kPa, x2 = 0.9032 | 720.64 | 712.92 | 708.9
20000 kPa, x2 = 0.9482 | 715.18 | 707.57 | 703.58
30000 kPa, x2 = 0.0554 | 873.3 | 863.54 | 858.8
30000 kPa, x2 = 0.1017 | 862.73 | 853.13 | 848.35
30000 kPa, x2 = 0.2004 | 841.24 | 832.13 | 827.76
30000 kPa, x2 = 0.3016 | 821.19 | 812.29 | 807.95
30000 kPa, x2 = 0.4097 | 801.28 | 792.63 | 788.48
30000 kPa, x2 = 0.498 | 786.13 | 777.78 | 773.73
30000 kPa, x2 = 0.5983 | 770.17 | 762.02 | 758.07
30000 kPa, x2 = 0.7017 | 754.83 | 746.9 | 743.08
30000 kPa, x2 = 0.7995 | 741.14 | 733.66 | 729.79
30000 kPa, x2 = 0.9032 | 727.83 | 720.51 | 716.58
30000 kPa, x2 = 0.9482 | 722.3 | 715.09 | 711.27
40000 kPa, x2 = 0.0554 | 881.82 | 872.42 | 867.89
40000 kPa, x2 = 0.1017 | 870.96 | 862.05 | 857.39
40000 kPa, x2 = 0.2004 | 849.41 | 840.65 | 836.44
40000 kPa, x2 = 0.3016 | 829.08 | 820.63 | 816.41
40000 kPa, x2 = 0.4097 | 808.91 | 800.54 | 796.66
40000 kPa, x2 = 0.498 | 793.67 | 785.54 | 781.69
40000 kPa, x2 = 0.5983 | 777.41 | 769.5 | 765.72
40000 kPa, x2 = 0.7017 | 761.79 | 754.19 | 750.52
40000 kPa, x2 = 0.7995 | 747.96 | 740.77 | 737.07
40000 kPa, x2 = 0.9032 | 734.49 | 727.37 | 723.74
40000 kPa, x2 = 0.9482 | 728.9 | 721.88 | 718.29
50000 kPa, x2 = 0.0554 | 889.56 | 880.62 | 876.38
50000 kPa, x2 = 0.1017 | 878.68 | 870 | 865.68
50000 kPa, x2 = 0.2004 | 856.76 | 848.46 | 844.44
50000 kPa, x2 = 0.3016 | 836.39 | 828.17 | 824.32
50000 kPa, x2 = 0.4097 | 815.92 | 807.96 | 804.27
50000 kPa, x2 = 0.498 | 800.51 | 792.71 | 789.1
50000 kPa, x2 = 0.5983 | 784.09 | 776.5 | 772.96
50000 kPa, x2 = 0.7017 | 768.34 | 761.01 | 757.53
50000 kPa, x2 = 0.7995 | 754.42 | 747.33 | 743.9
50000 kPa, x2 = 0.9032 | 740.62 | 733.84 | 730.37
50000 kPa, x2 = 0.9482 | 734.97 | 728.3 | 724.81
60000 kPa, x2 = 0.0554 | 896.85 | 888.24 | 884.1
60000 kPa, x2 = 0.1017 | 885.94 | 877.59 | 873.27
60000 kPa, x2 = 0.2004 | 863.93 | 855.9 | 852
60000 kPa, x2 = 0.3016 | 843.17 | 835.3 | 831.63
60000 kPa, x2 = 0.4097 | 822.77 | 814.87 | 811.3
60000 kPa, x2 = 0.498 | 807.05 | 799.57 | 796.01
60000 kPa, x2 = 0.5983 | 790.42 | 783.15 | 779.73
60000 kPa, x2 = 0.7017 | 774.43 | 767.47 | 764.12
60000 kPa, x2 = 0.7995 | 760.28 | 753.62 | 750.3
60000 kPa, x2 = 0.9032 | 746.42 | 739.97 | 736.68
60000 kPa, x2 = 0.9482 | 740.73 | 734.33 | 731.11
65000 kPa, x2 = 0.0554 | 900.21 | 891.92 | 887.83
65000 kPa, x2 = 0.1017 | 889.29 | 881.11 | 877.03
65000 kPa, x2 = 0.2004 | 867.33 | 859.41 | 855.63
65000 kPa, x2 = 0.3016 | 846.38 | 838.73 | 834.93
65000 kPa, x2 = 0.4097 | 825.84 | 818.27 | 814.66
65000 kPa, x2 = 0.498 | 809.97 | 802.79 | 799.35
65000 kPa, x2 = 0.5983 | 793.31 | 786.25 | 782.96
65000 kPa, x2 = 0.7017 | 777.27 | 770.47 | 767.16
65000 kPa, x2 = 0.7995 | 763.11 | 756.52 | 753.28
65000 kPa, x2 = 0.9032 | 749.1 | 742.75 | 739.66
65000 kPa, x2 = 0.9482 | 743.43 | 737.09 | 734.01
